From patent publication US9999222B2, “Herbicidal combination comprising azines” (BASF SE, priority 2014, dated 2018)
Values joined by “and” are separate entries in the source; they are usually repeats but may differ in a detail not shown here. Equal values may be shown once. Read-outs that look alike come from different tables or passages of the source.

Columns and labels:
Assay in all cases: Greenhouse test, pre-emergence treatment
ALOMY = assay type: in vivo, Alopecurus myosuroides; conditions: pre-emergence
Procedure, shortened: (§1)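 Damage was rated on a 0-100 scale, with 100 meaning no emergence or full destruction of aerial parts. Observed combination effects were set against the additive Colby expectation E=X+Y−(X·Y/100). Spray liquor was water-based, from 10% emulsion concentrates, applied pre-emergence right after sowing in loamy sand (about 3.0% humus). Plants were held at 10-25 °C or 20-35 °C for 2 to 4 weeks.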

ECHCG = assay type: in vivo, Echinocloa crus-galli; conditions: Echinochloa crus-galli, 480 h, read-out: observed % activity 20 DAT
Procedure, shortened: as §1

POLCO = assay type: in vivo, Polygonum convolvulus; conditions: pre-emergence
Procedure, shortened: as §1

SETFA = assay type: in vivo, Setaria faberi
Procedure, shortened: as §1

VIOAR = assay type: in vivo, Viola arvensis; conditions: use rate 500 g ai/ha, 20 DAT
Procedure, shortened: as §1

AVEFA = assay type: in vivo, Avena fatua; conditions: pre-emergence
Procedure, shortened: as §1

BRADC = assay type: in vivo, Brachiaria decumbens; conditions: Urochloa decumbens, pre-emergence, 480 h
Procedure, shortened: as §1

COMBE = assay type: in vivo, Commelina benghalensis; conditions: Commelina benghalensis, 480 h, pre-emergence, read-out: observed % activity 20 DAT
Procedure, shortened: as §1

EPHHL = assay type: in vivo, Euphorbia heterophylla; conditions: Euphorbia heterophylla, pre-emergence, 480 h, pre-emergence, 1000 g ai/ha; read-out: observed % activity 20 DAT
Procedure, shortened: as §1

GALAP = assay type: in vivo, Galium aparine; conditions: Galium aparine, pre-emergence, 480 h, 500 g ai/ha, 20 DAT; read-out: observed % activity
Procedure, shortened: as §1

GERPU = assay type: in vivo, Geranium pusillum; conditions: Geranium pusillum, pre-emergence, 480 h, pre-emergence, read-out: observed % activity 20 DAT
Procedure, shortened: as §1

KCHSC = assay type: in vivo, Kochia scoparia; conditions: Bassia scoparia, 480 h, pre-emergence, read-out: observed % activity 20 DAT
Procedure, shortened: as §1

LOLMU = assay type: in vivo, Lolium multiflorum; conditions: Lolium multiflorum, pre-emergence, 480 h, pre-emergence, read-out: observed % activity 20 DAT
Procedure, shortened: as §1

PHACA = assay type: in vivo, Phalaris canariensis; conditions: Phalaris canariensis, pre-emergence, 480 h, pre-emergence, read-out: observed % activity 20 DAT
Procedure, shortened: as §1

IPOHE = assay type: in vivo, Ipomoea hederacea; conditions: Ipomoea hederacea, 480 h, read-out: observed % activity 20 DAT
Procedure, shortened: as §1

SORHA = assay type: in vivo, Sorghum halepense; conditions: Sorghum halepense, pre-emergence, 480 h, 20 DAT, read-out: observed % activity

`CCC(CC)Nc1c([N+](=O)[O-])cc(C)c(C)c1[N+](=O)[O-]` [Pendimethalin, pendimethalin] gave an inhibition at 250 g/ha (ALOMY; Alopecurus myosuroides, 480 h, 250 g ai/ha, 20 DAT, read-out: observed % activity) of 60%, an inhibition at 500 g/ha (ALOMY; Alopecurus myosuroides, 480 h, 500 g ai/ha, 20 DAT, read-out: observed % activity) of 85% and a pest or weed control at 250 g/ha (ALOMY; Alopecurus myosuroides, 480 h, 250 g ai/ha, read-out: observed % activity 20 DAT) of 45%. The pest or weed control at 500 g/ha (ALOMY; Alopecurus myosuroides, 480 h, 500 g ai/ha, read-out: observed % activity 20 DAT) was 65%, the pest or weed control at 1000 g/ha (ALOMY; Alopecurus myosuroides, 480 h, 1000 g ai/ha, read-out: observed % activity 20 DAT) was 80% and the inhibition at 125 g/ha (ALOMY; Alopecurus myosuroides, 480 h, use rate 125 g ai/ha, read-out: observed % activity 20 DAT) was 55%. The pest or weed control at 250 g/ha (ALOMY; Alopecurus myosuroides, 480 h, use rate 250 g ai/ha, 20 DAT, read-out: observed % activity 20 DAT) was 15%, the pest or weed control at 1000 g/ha (ALOMY; Alopecurus myosuroides, 480 h, use rate 1000 g ai/ha, 20 DAT, read-out: observed % activity 20 DAT) was 95% and the inhibition at 1000 g/ha (ALOMY; Alopecurus myosuroides, 480 h, use rate 1000 g ai/ha, read-out: observed % activity 20 DAT) was 95%. The “observed % activity 20 DAT” value (ALOMY; use rate 500 g ai/ha) was 65% and 90%, the “observed % activity 20 DAT” value (ALOMY; use rate 1000 g ai/ha) was 75% and the inhibition at 125 g/ha (ECHCG; use rate 125 g ai/ha) was 95%. For the same molecule, the pest or weed control at 250 g/ha (ECHCG; use rate 250 g ai/ha, 20 DAT) was 98%, the inhibition at 250 g/ha (ECHCG; use rate 250 g ai/ha) was 98% and the pest or weed control at 500 g/ha (POLCO; Fallopia convolvulus, 480 h, use rate 500 g ai/ha, 20 DAT, read-out: observed % activity 20 DAT) was 60%. The inhibition at 250 g/ha (POLCO; Fallopia convolvulus, 480 h, 250 g ai/ha, 20 DAT, read-out: observed % activity) was 50%, the inhibition at 500 g/ha (POLCO; Fallopia convolvulus, 480 h, 500 g ai/ha, 20 DAT, read-out: observed % activity) was 60% and the inhibition at 125 g/ha (POLCO; Fallopia convolvulus, 480 h, use rate 125 g ai/ha, read-out: observed % activity 20 DAT) was 0%. For the same molecule, the inhibition at 500 g/ha (POLCO; Fallopia convolvulus, 480 h, use rate 500 g ai/ha, read-out: observed % activity 20 DAT) was 60%, the “observed % activity 20 DAT” value (POLCO; use rate 500 g ai/ha) was 45% and the inhibition at 125 g/ha (SETFA; Setaria faberi, 480 h, use rate 125 g ai/ha, read-out: observed % activity 20 DAT) was 98%. The inhibition at 500 g/ha (SETFA; Setaria faberi, 480 h, use rate 500 g ai/ha, read-out: observed % activity 20 DAT) was 98%, the “observed % activity 20 DAT” value (SETFA; use rate 500 g ai/ha, 20 DAT) was 98% and the “observed % activity 20 DAT” value (VIOAR) was 80%. The inhibition at 500 g/ha (AVEFA; Avena fatua, 480 h, 500 g ai/ha, 20 DAT, read-out: observed % activity) was 0%, the “observed % activity 20 DAT” value (AVEFA; 250 g ai/ha) was 0% and the inhibition at 500 g/ha (BRADC; 500 g ai/ha, 20 DAT, read-out: observed % activity) was 75%. It also gave a pest or weed control at 250 g/ha (BRADC; 250 g ai/ha, read-out: observed % activity 20 DAT) of 35%, a pest or weed control at 500 g/ha (BRADC; 500 g ai/ha, read-out: observed % activity 20 DAT) of 55% and a pest or weed control at 500 g/ha (COMBE; 500 g ai/ha) of 10%. It also gave a pest or weed control at 1000 g/ha (COMBE; 1000 g ai/ha) of 40%, a pest or weed control at 1000 g/ha (EPHHL) of 55% and an inhibition at 500 g/ha (GALAP) of 30%. For the same molecule, the pest or weed control at 125 g/ha (GERPU; use rate 125 g ai/ha, 20 DAT) was 90%, the inhibition at 125 g/ha (GERPU; use rate 125 g ai/ha) was 70% and the inhibition at 250 g/ha (GERPU; use rate 250 g ai/ha) was 90%. It also gave a pest or weed control at 500 g/ha (GERPU; use rate 500 g ai/ha, 20 DAT) of 70%, a pest or weed control at 500 g/ha (KCHSC; use rate 500 g ai/ha, 20 DAT) of 80% and an inhibition at 125 g/ha (KCHSC; use rate 125 g ai/ha) of 60%. For the same molecule, the inhibition at 125 g/ha (LOLMU; use rate 125 g ai/ha) was 0%, the inhibition at 250 g/ha (LOLMU; use rate 250 g ai/ha) was 0% and the pest or weed control at 1000 g/ha (LOLMU; use rate 1000 g ai/ha, 20 DAT) was 55%. For the same molecule, the inhibition at 1000 g/ha (LOLMU; use rate 1000 g ai/ha) was 55%, the pest or weed control at 250 g/ha (PHACA; 250 g ai/ha) was 0% and the pest or weed control at 500 g/ha (PHACA; 500 g ai/ha) was 45%. The inhibition at 125 g/ha (PHACA; use rate 125 g ai/ha) was 35%, the pest or weed control at 250 g/ha (PHACA; use rate 250 g ai/ha, 20 DAT) was 55% and the inhibition at 250 g/ha (PHACA; use rate 250 g ai/ha) was 55%. For the same molecule, the inhibition at 500 g/ha (PHACA; use rate 500 g ai/ha) was 65%, the pest or weed control at 500 g/ha (IPOHE; 500 g ai/ha) was 0% and the pest or weed control at 1000 g/ha (IPOHE; 1000 g ai/ha) was 0%. It also gave an inhibition at 250 g/ha (SORHA; 250 g ai/ha) of 75% and an inhibition at 500 g/ha (SORHA; 500 g ai/ha) of 85%.
